Experiment [1] concerns the target T1, KRas-mediated phosphorylation of ERK in MKN1 cells (Homo sapiens, UniProt P01116).
T1 construct: pERK HTRF read-out
Put plainly: Inhibition of KRas-mediated phosphorylation of ERK (HTRF), MKN1 cells. The format is cell-based. Conditions: MKN1 cells (KRas WT); HTRF pERK; 3 h incubation. The method, then:
Inhibition of KRas Phosphorylation of ERK (HTRF) by Exemplary Compounds of Formula (Ia) or (Ib)
Cisbio HTRF Advanced pERK Assay Catalog #64AERPEH • Cells: MKN1, PSN1 • Procedure: • 1. Day 1: Seed 6,000 cells/well −25 μl/well in 384-well white solid bottom plate; RPM1_10% FBS. Incubate overnight at 37 °C/5% CO2. • 2.
A general note: In TR-FRET formats the signal depends on donor and acceptor labels being close together.

In experiment [2] the target is T2, KRas-mediated phosphorylation of ERK in A549 cells (Homo sapiens, UniProt P01116, G12S).
T2 construct: pERK HTRF read-out
Put plainly: Inhibition of KRas-mediated phosphorylation of ERK (HTRF), A549 cells. Conditions: HTRF pERK, 3 h incubation. The format is cell-based.

Experiment [3] deals with T3, KRas-mediated phosphorylation of ERK in H358 cells (Homo sapiens, UniProt P01116, G12C).
T3 construct: pERK HTRF read-out
Put plainly: Inhibition of KRas-mediated phosphorylation of ERK (HTRF), H358 cells. The experiment is classed as cell-based. The following applies: HTRF pERK, 3 h incubation.

A further experiment deals with T4, KRas WT (Homo sapiens, UniProt P01116).
T4 construct: Biotinylated KRas (corresponding to amino acids 1-169, produced at Accelegan Inc.); biotin (biotinylated); purchased Accelegan Inc
Nature of the experiment: KRas binding assay, TR-FRET displacement of Cy5 labelled tracer. Conditions: 60-minute incubation at room temperature, 1% DMSO, pH 7.5. In outline: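 Displacement measured on KRas residues 1-169 (biotinylated, terbium-streptavidin labelled); 1 h, RT; 1% DMSO final; HEPES pH 7.5 / MgCl2 / Tween-20 / DTT. IC50: 4-parameter fit.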

The target in a further experiment is T5, KRas G12S (Homo sapiens, UniProt P01116, G12S).
T5 construct: Biotinylated KRas (corresponding to amino acids 1-169, produced at Accelegan Inc.); biotin (biotinylated); purchased Accelegan Inc
The description is as above. The following applies: 60-minute incubation at room temperature, 1% DMSO, pH 7.5. In outline:
(§1)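 Biotinylated KRas (aa 1-169) incubated with Cy5-labelled tracer, terbium streptavidin and compound (1% DMSO final) in 50 mM HEPES pH 7.5, 5 mM MgCl2, 0.005% Tween-20, 1 mM DTT. Tracer displacement read by TR-FRET after 60 min at room temperature; POC values fitted to 4-parameter IC50 equation.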

A further experiment deals with T6, KRas G12C (Homo sapiens, UniProt P01116, G12C).
T6 construct: Biotinylated KRas (corresponding to amino acids 1-169, produced at Accelegan Inc.); biotin (biotinylated); purchased Accelegan Inc
The description is as above. Conditions: 60-minute incubation at room temperature, 1% DMSO, pH 7.5. In outline:
as §1

Each structure is given as a SMILES string.

T5 sequence (P01116 1-169 isoform P01116-2 G12S): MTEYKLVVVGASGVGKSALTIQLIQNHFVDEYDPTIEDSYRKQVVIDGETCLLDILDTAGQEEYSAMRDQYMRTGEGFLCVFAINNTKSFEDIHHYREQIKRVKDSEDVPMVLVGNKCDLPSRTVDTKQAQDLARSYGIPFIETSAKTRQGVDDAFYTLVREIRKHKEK
T3 sequence (P01116 1-188 isoform P01116-2 G12C): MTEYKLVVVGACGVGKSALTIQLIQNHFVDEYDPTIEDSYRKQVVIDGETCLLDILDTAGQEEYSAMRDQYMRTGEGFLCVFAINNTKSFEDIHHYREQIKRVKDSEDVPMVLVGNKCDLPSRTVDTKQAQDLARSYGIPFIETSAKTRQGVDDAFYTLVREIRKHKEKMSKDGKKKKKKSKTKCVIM
T1 sequence (P01116 1-188 isoform P01116-2): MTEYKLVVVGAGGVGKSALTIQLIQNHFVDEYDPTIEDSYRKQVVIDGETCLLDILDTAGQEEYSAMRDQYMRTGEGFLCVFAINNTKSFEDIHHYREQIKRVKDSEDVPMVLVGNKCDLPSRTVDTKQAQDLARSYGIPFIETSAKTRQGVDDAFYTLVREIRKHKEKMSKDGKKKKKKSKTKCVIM
T4 sequence (P01116 1-169 isoform P01116-2): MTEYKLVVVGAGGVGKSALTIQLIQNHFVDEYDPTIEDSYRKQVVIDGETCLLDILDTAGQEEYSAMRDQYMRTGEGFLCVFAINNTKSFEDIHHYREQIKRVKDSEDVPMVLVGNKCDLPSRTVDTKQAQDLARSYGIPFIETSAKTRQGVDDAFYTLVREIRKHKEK
T6 sequence (P01116 1-169 isoform P01116-2 G12C): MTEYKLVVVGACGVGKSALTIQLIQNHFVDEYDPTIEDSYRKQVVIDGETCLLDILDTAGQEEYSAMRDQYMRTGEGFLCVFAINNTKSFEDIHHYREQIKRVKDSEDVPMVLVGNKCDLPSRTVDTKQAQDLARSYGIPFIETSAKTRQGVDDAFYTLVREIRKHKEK
T2 sequence (P01116 1-188 isoform P01116-2 G12S): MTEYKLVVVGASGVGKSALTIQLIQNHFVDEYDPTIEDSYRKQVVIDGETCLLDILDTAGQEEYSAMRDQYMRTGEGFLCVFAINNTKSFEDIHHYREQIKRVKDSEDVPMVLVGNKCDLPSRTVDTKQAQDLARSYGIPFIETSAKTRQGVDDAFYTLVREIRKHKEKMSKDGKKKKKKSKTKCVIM

As usually defined, the IC50 is the concentration needed to halve the response being measured. On to `CN(C)CCc1ccn(C(=O)C2CCCN(c3nc(OC[C@@]45CCCN4C[C@H](F)C5)nc4c(F)c(-c5ccc(F)c6sc(N)c(C#N)c56)c(Cl)cc34)CC2)n1` (stereo partly drawn) [Example 219, 2-amino-4-(6-chloro-4-(4-(3-(2-(dimethylamino)ethyl)-1H-pyrazole-1-carbonyl)azepan-1-yl)-8-fluoro-2-(((2R,7aS)-2-fluorotetrahydro-1H-pyrrolizin-7a(5H)-yl)methoxy)quinazolin-7-yl)-7-fluorobenzo[b]thiophene-3-carbonitrile], for which the IC50 worked out at 431 nM in experiment [1]; 12 nM in experiment [2]; 16 nM in experiment [3]; 10 nM at KRas WT; 4 nM at KRas G12S; 3 nM at KRas G12C.
As to `CC(C)(C)c1ccn(C(=O)C2CCCN(c3nc(OC[C@@]45CCCN4C[C@H](F)C5)nc4c(F)c(-c5ccc(F)c6sc(N)c(C#N)c56)c(Cl)cc34)CC2)n1` (stereo partly drawn) [Example 220, 2-amino-4-(4-(4-(3-(tert-butyl)-1H-pyrazole-1-carbonyl)azepan-1-yl)-6-chloro-8-fluoro-2-(((2R,7aS)-2-fluorotetrahydro-1H-pyrrolizin-7a(5H)-yl)methoxy)quinazolin-7-yl)-7-fluorobenzo[b]thiophene-3-carbonitrile], the 50% inhibitory concentration (IC50) in experiment [1] stood at 258 nM; in experiment [2] it was 336 nM; in experiment [3] it was 449 nM; at KRas WT, 160 nM; at KRas G12S, 153 nM; on KRas G12C, 209 nM.
For the compound `CCc1c(F)ccc2cc(O)cc(-c3ncc4c(N(C)CCCC(=O)N(C)C(C)=O)nc(OC[C@@]56CCCN5C[C@H](F)C6)nc4c3F)c12` [Example 221, N-acetyl-4-((7-(8-ethyl-7-fluoro-3-hydroxynaphthalen-1-yl)-8-fluoro-2-(((2R,7aS)-2-fluorotetrahydro-1H-pyrrolizin-7a(5H)-yl)methoxy)pyrido[4,3-d]pyrimidin-4-yl)(methyl)amino)-N-methylbutanamide], the IC50 was 409 nM in experiment [1]; 26 nM in experiment [2]; 485 nM in experiment [3]; 101 nM on KRas WT; 11 nM on KRas G12S; 43 nM on KRas G12C.
For `Cc1ccn(C(=O)C2CCCN(c3nc(OC[C@@]45CCCN4C[C@H](F)C5)nc4c(F)c(-c5nc(N)ccc5C)c(Cl)cc34)CC2)n1` (stereo partly drawn) [Example 222, (1-(7-(6-amino-3-methylpyridin-2-yl)-6-chloro-8-fluoro-2-(((2R,7aS)-2-fluorotetrahydro-1H-pyrrolizin-7a(5H)-yl)methoxy)quinazolin-4-yl)azepan-4-yl)(3-methyl-1H-pyrazol-1-yl)methanone], the IC50 was 8260 nM in experiment [1]; 1970 nM in experiment [2]; > 10000 nM in experiment [3]; 29600 nM at KRas WT; 3410 nM on KRas G12S; 18300 nM on KRas G12C.
Consider `CCc1c(F)ccc2cc(O)cc(-c3ncc4c(N(C)CCN(C)C(=O)n5cncn5)nc(OC[C@@]56CCCN5C[C@H](F)C6)nc4c3F)c12` [Example 223, N-(2-((7-(8-ethyl-7-fluoro-3-hydroxynaphthalen-1-yl)-8-fluoro-2-(((2R,7aS)-2-fluorotetrahydro-1H-pyrrolizin-7a(5H)-yl)methoxy)pyrido[4,3-d]pyrimidin-4-yl)(methyl)amino)ethyl)-N-methyl-1H-1,2,4-triazole-1-carboxamide], for which the IC50 in experiment [1] was 569 nM; in experiment [2], 2390 nM; in experiment [3], 17 nM; on KRas WT, 164 nM; at KRas G12S, 53 nM; at KRas G12C it was 42 nM.
With `CCc1c(F)ccc2cc(O)cc(-c3ncc4c(N5CCC(C(=O)N(C)C(=O)C(C)(C)C)CC5)nc(OC[C@@]56CCCN5C[C@H](F)C6)nc4c3F)c12` [Example 224, 1-(7-(8-ethyl-7-fluoro-3-hydroxynaphthalen-1-yl)-8-fluoro-2-(((2R,7aS)-2-fluorotetrahydro-1H-pyrrolizin-7a(5H)-yl)methoxy)pyrido[4,3-d]pyrimidin-4-yl)-N-methyl-N-pivaloylpiperidine-4-carboxamide], the IC50 came out at 321 nM in experiment [1]; 3770 nM in experiment [2]; 1330 nM in experiment [3]; 177 nM at KRas WT; 257 nM at KRas G12S; 526 nM at KRas G12C.
Take `CCc1c(F)ccc2cc(O)cc(-c3ncc4c(N(C)CCNC(=O)n5cncn5)nc(OC[C@@]56CCCN5C[C@H](F)C6)nc4c3F)c12` [Example 225, N-(2-((7-(8-ethyl-7-fluoro-3-hydroxynaphthalen-1-yl)-8-fluoro-2-(((2R,7aS)-2-fluorotetrahydro-1H-pyrrolizin-7a(5H)-yl)methoxy)pyrido[4,3-d]pyrimidin-4-yl)(methyl)amino)ethyl)-1H-1,2,4-triazole-1-carboxamide]: the IC50 in experiment [1] was found to be 237 nM; in experiment [2], 2730 nM; in experiment [3], 13 nM; at KRas WT it was 30 nM; on KRas G12S, 18 nM; at KRas G12C, 6 nM.
For `N#Cc1c(N)sc2c(F)ccc(-c3c(Cl)cc4c(N5CCN(C(=O)n6ccnn6)CC5)nc(OC[C@@]56CCCN5C[C@H](F)C6)nc4c3F)c12` [Example 226, 4-(4-(4-(1H-1,2,3-triazole-1-carbonyl)piperazin-1-yl)-6-chloro-8-fluoro-2-(((2R,7aS)-2-fluorotetrahydro-1H-pyrrolizin-7a(5H)-yl)methoxy)quinazolin-7-yl)-2-amino-7-fluorobenzo[b]thiophene-3-carbonitrile], the IC50 was 4 nM in experiment [1]; 69 nM in experiment [2]; 1 nM in experiment [3]; 6 nM on KRas WT; 8 nM at KRas G12S; < 2 nM on KRas G12C.
For the compound `Cc1ccn(C(=O)C2CCCN(c3nc(OCC4(CN(C)C)CC4)nc4c(F)c(-c5ccc(F)c6sc(N)c(C#N)c56)c(Cl)cc34)CC2)n1` (stereo not drawn) [Example 227, 2-amino-4-(6-chloro-2-((1-((dimethylamino)methyl)cyclopropyl)methoxy)-8-fluoro-4-(4-(3-methyl-1H-pyrazole-1-carbonyl)azepan-1-yl)quinazolin-7-yl)-7-fluorobenzo[b]thiophene-3-carbonitrile], the IC50 amounted to 522 nM in experiment [1]; 46 nM in experiment [2]; 185 nM in experiment [3]; 93 nM at KRas WT; 13 nM at KRas G12S; 19 nM on KRas G12C.
On to `CN(CCNC(=O)n1cncn1)c1nc(OC[C@@]23CCCN2C[C@H](F)C3)nc2c(F)c(-c3ccc(F)c4sc(N)c(C#N)c34)c(Cl)cc12` [Example 228, N-(2-((7-(2-amino-3-cyano-7-fluorobenzo[b]thiophen-4-yl)-6-chloro-8-fluoro-2-(((2R,7aS)-2-fluorotetrahydro-1H-pyrrolizin-7a(5H)-yl)methoxy)quinazolin-4-yl)(methyl)amino)ethyl)-1H-1,2,4-triazole-1-carboxamide], for which the IC50 in experiment [1] turned out to be 252 nM; in experiment [2], 448 nM; in experiment [3] it was 9 nM; at KRas WT, 13 nM; on KRas G12S, 8 nM; at KRas G12C, 3 nM.
As to `N#Cc1c(N)sc2c(F)ccc(-c3c(Cl)cc4c(N5CCN(S(=O)(=O)n6nccn6)CC5)nc(OC[C@@]56CCCN5C[C@H](F)C6)nc4c3F)c12` [Example 229, 4-(4-(4-((2H-1,2,3-triazol-2-yl)sulfonyl)piperazin-1-yl)-6-chloro-8-fluoro-2-(((2R,7aS)-2-fluorotetrahydro-1H-pyrrolizin-7a(5H)-yl)methoxy)quinazolin-7-yl)-2-amino-7-fluorobenzo[b]thiophene-3-carbonitrile], the IC50 in experiment [1] was 333 nM; in experiment [2], > 10000 nM; in experiment [3], > 10000 nM; on KRas WT, 161 nM; at KRas G12S, 631 nM; at KRas G12C, 586 nM.
On to `CCc1c(F)ccc2cc(O)cc(-c3ncc4c(N(C)CCCS(=O)(=O)n5cccn5)nc(OC[C@@]56CCCN5C[C@H](F)C6)nc4c3F)c12` [Example 230, 4-(4-((3-((1H-pyrazol-1-yl)sulfonyl)propyl)(methyl)amino)-8-fluoro-2-(((2R,7aS)-2-fluorotetrahydro-1H-pyrrolizin-7a(5H)-yl)methoxy)pyrido[4,3-d]pyrimidin-7-yl)-5-ethyl-6-fluoronaphthalen-2-ol], for which the IC50 came to 394 nM in experiment [1]; 4350 nM in experiment [2]; 1500 nM in experiment [3]; 91 nM at KRas WT; 123 nM at KRas G12S; 134 nM on KRas G12C.

The values above are taken from patent US20260356856A1, “KRAS G12S AND G12C INHIBITORS” (MIRATI THERAPEUTICS, INC., priority 2023, published 2026).
